Data set [1] concerns the target T1, E. coli ADC (Escherichia coli, UniProt P21170).
T1 construct: The kinetic parameters determined for the partially purified biosynthetic ADC from E. coli; endogenous in cells; host or cells: E. coli DH5α (39-53% ammonium sulphate fraction of the lysate, desalted)
T1 sequence (P21170 1-658): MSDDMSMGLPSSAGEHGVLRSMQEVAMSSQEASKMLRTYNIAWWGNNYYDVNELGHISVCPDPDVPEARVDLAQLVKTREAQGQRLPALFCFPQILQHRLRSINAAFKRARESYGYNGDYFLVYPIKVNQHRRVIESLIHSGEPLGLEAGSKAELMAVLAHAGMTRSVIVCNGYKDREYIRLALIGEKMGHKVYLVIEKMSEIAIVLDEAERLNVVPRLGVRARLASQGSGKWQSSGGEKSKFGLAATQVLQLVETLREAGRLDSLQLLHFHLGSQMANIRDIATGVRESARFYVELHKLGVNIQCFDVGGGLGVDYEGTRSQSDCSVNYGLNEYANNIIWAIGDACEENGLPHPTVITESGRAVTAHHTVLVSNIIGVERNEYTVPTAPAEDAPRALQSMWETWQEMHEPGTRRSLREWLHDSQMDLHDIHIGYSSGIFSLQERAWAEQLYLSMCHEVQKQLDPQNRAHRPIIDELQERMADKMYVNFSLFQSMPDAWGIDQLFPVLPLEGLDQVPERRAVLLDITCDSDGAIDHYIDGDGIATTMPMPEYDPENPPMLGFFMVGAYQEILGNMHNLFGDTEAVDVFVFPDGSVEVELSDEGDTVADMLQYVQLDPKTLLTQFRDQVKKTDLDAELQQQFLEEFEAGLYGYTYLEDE
Further details: method as in PMID 4571773. Particulars: cited from earlier work.

Data set [2] has as its target T2, mouse kidney ODC (Mus musculus, UniProt P00860).
T2 construct: Aliquots of the supernatant were mixed with 1–5000 μM of AO-Agm and the ODC assay was carried out; from tissue; host or cells: C57Bl/6J male mouse kidney, 12,000 g supernatant of the homogenate
T2 sequence (P00860 1-461): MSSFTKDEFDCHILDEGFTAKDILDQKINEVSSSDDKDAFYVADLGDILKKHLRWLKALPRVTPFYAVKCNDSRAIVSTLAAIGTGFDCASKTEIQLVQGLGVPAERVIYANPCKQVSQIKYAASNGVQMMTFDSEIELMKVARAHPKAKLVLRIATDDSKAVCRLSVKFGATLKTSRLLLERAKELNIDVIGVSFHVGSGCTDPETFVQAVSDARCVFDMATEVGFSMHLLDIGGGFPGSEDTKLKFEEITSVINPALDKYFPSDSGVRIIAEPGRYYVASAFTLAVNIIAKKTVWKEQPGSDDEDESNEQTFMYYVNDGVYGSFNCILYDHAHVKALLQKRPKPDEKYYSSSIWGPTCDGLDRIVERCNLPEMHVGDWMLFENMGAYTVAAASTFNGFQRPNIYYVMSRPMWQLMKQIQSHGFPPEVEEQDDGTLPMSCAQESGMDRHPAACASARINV
More on the design: method as in PMID 6810923. Conditions: reversibly bound PLP; cited from earlier work.

For data set [3], the target named is T1, E. coli ADC. Description: E. coli ADC activity assay (HPLC of agmatine). Format: biochemical. Particulars: 0.1 mM PLP; 15 min preincubation; 0.15 mM L-Arg. The method, then: The purification was performed using a modified procedure of earlier publication. E. coli strain DH5α was grown in Luria-Bertani broth at +37 °C with shaking (200 rpm) overnight. The cells were collected by centrifugation and the pellet was homogenized with Potter-Elvehjem in 10 volumes (w/v) of ice-cold 50 mM Tris-HCl pH 7.4, 1 mM DTT. The cell debris was removed by centrifugation at 12,000 g for 30 min at +4 °C. Solid (NH4)2SO4 was added to the supernatant, and the pellet precipitating between 39% and 53% saturation was separated. The precipitate was resuspended in ice-cold buffer containing 50 mM Tris-HCl pH 7.4 and 1 mM DTT and desalted by passage through Sephadex G-25 column (NAP-10 column, GE Healthcare). The protein concentration was measured with Bio-Rad protein reagent, and the partially purified enzyme preparation was mixed with 20% glycerol and aliquoted for storage at −80 °C.
[…] The ODC reaction mixture contained 50 mM Tris-HCl pH 7.8, 1 mM EDTA, 2.4 mM DTT, 0.1 mM PLP and 20 μg of partially purified enzyme preparation. The mixtures were either preincubated or not preincubated for 15 min at +40 °C in the presence of the inhibitor, after which the reaction was started by the addition of 18 μL of 10× substrate (L-Arg for ADC and L-Orn for ODC). After incubation for 30 min (ADC) or 20 min (ODC) at +40 °C, 20 μL of 50% sulphosalicylic acid containing 50 μM diaminoheptane (internal standard) was added and the samples were analyzed for the content of agmatine (ADC) and Put (ODC) with HPLC as described previously. The kinetic parameters and IC50 values were determined with the aid of GraphPad Prism version 5.03 using nonlinear regression analysis.

Data set [4] has as its system Acremonium chrysogenum wild-type (WT) ATCC 11550. Briefly: Fungal growth inhibition (drop-dilution, CD agar), WT strain. It is filed as cell-based. The text has this: (§1) Two strains of Acremonium chrysogenum were used in this study: the wild-type (Brotzu) isolate ATCC 11550 (WT) and high-cephalosporin-yielding RNCM F-4081D (HY), derived from the WT [37]. The cultivation conditions were the same as previously described. The filamentous fungi were cultivated on agarized Czapek-Dox (CD) medium (30 g/L sucrose, 2 g/L NaNO3, 1 g/L K2HPO4, 0.5 g/L MgSO4×7 H2O, 0.5 g/L KCl, 0.01 g/L FeSO4×7 H2O, 20 g/L agar, pH 7.0–7.4). To determine the toxic effect of AO-Agm, APA, DFMA and DFMO on the growth of fungal cells the drop-dilution method was used with some modifications as described earlier. Cells were collected from agar slants and diluted with 0.9% NaCl solution up to OD600 = 0.5 (basic concentration), followed by serial tenfold dilutions with the same solution. […] The inoculated Petri dishes were incubated for 21 days at 26 °C. The inhibitory effects of the compounds were measured every three days after inoculation and evaluated by measuring the ratio of colony growth on agarized CD medium supplemented with AO-Agm, APA, DFMA, or DFMO to the growth in the control (agarized CD medium without any additions). The formula: growth inhibition % = [(Dc − Dt)/Dc] × 100, where Dc indicates the colony diameter in control set, and Dt indicates the colony diameter in the treatment set that was used to determine the percent of fungal growth inhibition. The data recorded were measured in triplicate and repeated at least twice.

Data set [5] has as its system Acremonium chrysogenum high-cephalosporin-yielding (HY) RNCM F-4081D. Description: Fungal growth inhibition (drop-dilution, CD agar), HY strain. It is filed as cell-based.
Source text: as §1

Data set [6] has as its system mammalian ODC. More on the design: method as in PMID 3841480, PMID 1573631. Conditions: cited from earlier work.
Details of data set [7]: method as in PMID 7896733. Conditions: 48 h; absence of amine oxidase inhibitor; cited from earlier work.

Entries after “also recorded” stand apart in the source; their conditions may differ. Like-named read-outs stand apart in the source and are kept apart here.

With `Cc1ncc(COP(=O)(O)O)c(C=O)c1O` [PLP, pyridoxal-5’-phosphate], the Km (as a rule, the concentration of substrate that gives half-maximal velocity) was 0.6 µM in data set [1] (PLP binding to the apo-enzyme) and 0.3 µM in data set [2].

For the molecule `N=C(N)NCCC[C@H](N)C(=O)O` [L-Arg, L-arginine], the Km in data set [1] (pH 8.4) was 30 µM.

In the case of `NCCCON` [APA, 1-aminooxy-3-aminopropane], in data set [3], the “ADC inhibition relative to AO-Agm (weaker)” value came to 1000 times and the 50% inhibitory concentration (IC50) – broadly, the concentration that gives 50% inhibition – worked out at 33 ± 2 µM. Moreover, in data set [4] (5 mM inhibitor), the “Growth of WT strain” value is “completely inhibited”. The “Effect of 0.5 mM Spd on the growth arrest caused by the inhibitor” value in data set [4] (5 mM inhibitor + 0.5 mM Spd) was “reversed the growth arrest”. The inhibition – broadly, the relative decrease from the control value, in per cent – at 1000 µM in data set [4] (Hapsidospora chrysogena, ATCC11550, 1 mM inhibitor, 17th day after inoculation) was around 95%. The molecule also displayed an inhibition at 5000 µM in data set [4] (Hapsidospora chrysogena, ATCC11550, 336 h, 5 mM inhibitor, 14 days after inoculation on CD medium) of 100%. Besides, in data set [5] (HY strain, 1 mM inhibitor), the “Growth inhibition compared with 5 mM” value is “much less effective”. Besides, the inhibition at 5000 µM in data set [5] (Hapsidospora chrysogena, 336 h, read-out: Growth inhibition) is 44%. Further, the “Concentrations inhibiting mammalian ODC” value in data set [6] was “nanomolar inhibitor; also recorded: nanomolar concentrations”. For the same molecule, in data set [7], the “Level remaining in the cell culture medium, of its initial concentration” value is given as “about 10%”.

The record behind these values is paper PMC7175277, “Hydroxylamine Analogue of Agmatine: Magic Bullet for Arginine Decarboxylase” (Biomolecules, 2020).
